“And” between values parts separate entries of the source, which are not always exact repeats. Identical values can stand only once. “Also recorded” adds a separate entry of the source.
Experiments:
Assay type in all cases: in vivo, mouse
[1] = test system: hexb^−/− mice; experiment: Survival of Sandhoff (hexb−/−) mice given 4-PBA in drinking water, Mantel-Cox analysis
Method: Mouse work was conducted under the animal utilization protocol (AUP) in accordance with the Ontario Animals for Research Act specifications and the Animal Research Ethics Board (AREB) guidelines. The Sandhoff model mice (hexb^−/− on a C57BL/6 background) were generously donated by Dr. R. Gravel (University of Calgary, Canada) and have been previously characterized.
(§1) Protocol one: Two groups of hexb^−/− mice (n=10 per group); One group was administered 4-PBA (Scandinavian Formulas, Inc.) 4 mg/ml (0.4% w/v) in drinking water at 40 d of age. Body weights and vitals were monitored, and motor neuromuscular function were assessed every other day starting at 50 d of age until end point.
(§2) To assess the efficacy of chemical chaperone 4-PBA in reducing ER stress, hexb^−/− mice were administered 4-PBA in their drinking water at 40 d of age and underwent behavioral testing beginning at 7 weeks of age. Utilizing several behavioral tests such as wire hang, body weight, and righting response, measures of degeneration of cerebellar and motor neuromuscular functions were collected (FIG. 14). […] Lastly, an analysis of survivability was conducted using a Mantel-Cox test (FIG. 14 D). […] Overall, an increase of 16 days was noted, with 127 days as the median survival age for untreated hexb^−/− mice and 143 days for 4-PBA treated hexb^−/− mice.

[2] = test system: hexb^−/− mice; experiment: Wire hang test in hexb−/− mice; settings: hexb−/− mice treated with 4-PBA vs untreated
Method: as §1, §2

[3] = test system: hexb^−/− mice; experiment: Righting reflex / righting response in hexb−/− mice
Method: as §1, §2

[4] = Body mass of hexb−/− mice; settings: hexb−/− mice with 4-PBA compared to wildtype
Method: as §1, §2

[5] = test system: phosphorylated eukaryotic initiation factor 2 alpha (p-eIF2α); experiment: Immunofluorescence of p-eIF2α and YY1 in spinal cord of hexb−/− mice
From the text: (§3) Protocol Two: Two groups of hexb^−/− mice at 40 d of age (n=4 per group) were set. […] Mice were perfused at 80 d, with formalin and processed for immunocytochemistry. Spine sections from treated and untreated mice were immunolabelled with multiple antibodies and evaluated.
(§4) Spinal cords from hexb^+/+ and hexb^−/− mice were harvested at 40, 60, 80, 100, and 120 d and embedded in paraffin as described above. Samples were rehydrated, first by washing slides with xylene then by washing them with a 1:1 solution of xylene and ethanol (EtOH) followed by washes in 100% EtOH, 95% EtOH, 70% EtOH, 70% EtOH/1% lithium carbonate solution, 70% EtOH, and finally, 50% EtOH. Next, antigen retrieval in a sodium citrate buffer (pH 6) was performed by microwaving the slides at 1 min intervals until boiling and then maintaining a boil for 5 minutes. The slides were then washed with tap water followed by a wash in glycine. […]
(§5) UPR activation was assessed through immunofluorescent staining of phosphorylated eukaryotic initiation factor 2 alpha (p-eIF2α) positive neurons and transcription factor YY1 in spinal cord sections from hexb^−/− mice that were treated or untreated with 4-PBA for (FIG. 15). […] Furthermore, the degree of apoptotic events occurring during disease pathogenesis with and without 4-PBA treatment was evaluated (FIG. 16). […]

[6] = test system: cleaved caspase 7; experiment: Immunofluorescence of cleaved caspase 7 and NeuN in spinal cord; settings: after 4-PBA treatment vs untreated
From the text: as §3, §4, §5

[7] = test system: ChAT-positive motor neurons (AHNs); experiment: Immunofluorescence of ChAT and GFAP in anterior horn of spinal cord; settings: 4-PBA treated hexb−/− mice
From the text: as §3
(§6) Spinal cords from hexb^+/+ and hexb^−/− mice were harvested at 40, 60, 80, 100, and 120 d and embedded in paraffin as described above. Samples were rehydrated, first by washing slides with xylene then by washing them with a 1:1 solution of xylene and ethanol (EtOH) followed by washes in 100% EtOH, 95% EtOH, 70% EtOH, 70% EtOH/1% lithium carbonate solution, 70% EtOH, and finally, 50% EtOH. Next, antigen retrieval in a sodium citrate buffer (pH 6) was performed by microwaving the slides at 1 min intervals until boiling and then maintaining a boil for 5 minutes. The slides were then washed with tap water followed by a wash in glycine. Following, the slides were then incubated with bloxall blocking solution for 10 minutes, followed by a 5 minute wash with PBS. Slides were then blocked with 2.5% horse serum for 20 minutes. Samples were then double labelled with a combination of anti-GFAP (1:100, Sigma; G9269), anti-ChAT (1:200, SIGMA), anti-Calretinin (1:200, Proteintech) and anti-NeuN (1:100, novus biologicals; N.BP1-92693). Slides were incubated with antibodies overnight at 4° C. Samples were washed with 1×PBS+0.05% TWEEN20 for 3×5 minutes, prior to application of the secondary antibody. Following, slides were double labeled with appropriate Alexa Fluor secondaries (Invitrogen, goat anti-rabbit 488: A11037, goat anti-mouse 594: A11029) and then again washed with 1×PBS+0.05% TWEEN20. Finally, the slides were mounted with ProLong Diamond antifade mountant reagent with DAPI (Invitrogen: P36966). Samples were imaged using Ziess Axiovert 200 scope equipped with an HBO 100 mercury lamp.
One of the hall marks of motor neurons within the spinal cord is the enzyme choline acetyltransferase (ChAT). […]

[8] = test system: Calretinin-positive interneurons; experiment: Immunofluorescence of Calretinin in spinal cord sections; settings: 4-PBA treated hexb−/− mice
From the text: as §3
as §6, with “Samples were washed with 1×PBS+0.05% TWEEN20 for 3×5 minutes, prior to application of the secondary antibody. Following, slides were double labeled with appropriate Alexa Fluor secondaries (Invitrogen, goat anti-rabbit 488: A11037, goat anti-mouse 594: A11029) and then again washed with 1×PBS+0.05% TWEEN20. Finally, the slides were mounted with ProLong Diamond antifade mountant reagent with DAPI (Invitrogen: P36966). Samples were imaged using Ziess Axiovert 200 scope equipped with an HBO 100 mercury lamp.” left out

[9] = test system: muscle fibers; experiment: Cross-sectional area of muscle fibers from muscles surrounding the spinal cord; settings: 4-PBA treated hexb−/− mice, 80 d
From the text: as §3
Neuromuscular deficits are a highly prevalent consequence of Sandhoff disease. Therefore, cell body sectional area of the anterior horn neurons and the cross-sectional area of muscle fibers from the muscles surrounding the spinal cord of 80 d hexb^+/+ and hexb^−/− mice were evaluated (FIG. 19). Within hexb^+/+ mice, muscle fibres have an average area of ˜1000 um^2 while in contrast hexb^−/− mice show a 44% reduction in area with an average of −570 um^2. Such a drastic reduction early in disease pathology indicates mass muscle atrophy and neuronal loss has already occurred.

[10] = test system: ATF6; experiment: ATF6 expression after 4-PBA treatment

Compound: O=C(O)CCCc1ccccc1 [4-PBA, 4-phenylbutyric acid]
- survival / life span (in words) ([1]; hexb−/− mice with 4-PBA vs without, Mantel-Cox P<0.001): beneficial impact on lifespan; also recorded: significant improvement in motor neuromuscular function and life span; also recorded: lived significantly longer
- median survival ([1]; hexb−/− mice, 4-PBA 4 mg/ml (0.4% w/v) in drinking water from 40 d of age, untreated 127 days): 143 days
- increase of median survival over untreated hexb−/− mice ([1]; hexb−/− mice, 4-PBA 4 mg/ml in drinking water from 40 d of age): 16 days
- wire hang time [2]: significant increase in wire hang time; also recorded: longer wire hang
- righting reflex / righting response time ([3]; hexb−/− mice treated with 4-PBA vs untreated): significantly faster righting response; also recorded: significantly faster righting reflex
- delay in righting response time impairment ([3]; treated vs untreated hexb−/− mice (untreated impaired by 17 weeks of age)): 2 week
- body mass [4]: restored hexb^−/− mice weights to wildtype levels
- nuclear localization of p-eIF2α ([5]; hexb−/− mice after 4-PBA treatment vs untreated): increase in the nuclear localization
- number of cytosolic p-eIF2α-positive neurons in spinal cord ([5]; hexb−/− mice treated with 4-PBA from 40 d, perfused at 80 d, vs untreated): significant reduction
- number of cCas7 positive neurons in spinal cord [6]: significant reduction in the number of cCas7 positive neurons; also recorded: suppressed c-Cas7
- C-boutons [7]: more prevalent around AHNs motor neurons and throughout the anterior horn
- ChAT staining / ChAT-positive motor neurons in anterior horn [7]: ChAT staining was normalized; also recorded: intense cytosolic ChAT staining within viable AHNs; also recorded: ChAT-positive motor neurons were maintained in anterior horn
- GFAP staining in anterior horn [7]: intense GFAP staining
- Calretinin-positive interneurons within the anterior horn region [8]: very little Calretinin-positive interneurons
- muscle fiber cross-sectional area vs hexb+/+ (in words) [9]: no significant difference; also recorded: maintained normal cross section area of muscle fibers
- muscle fiber cross-sectional area (average) ([9]; hexb+/+ ~1000, untreated hexb−/− ~570): 900 um^2 and 850 um^2
- ATF6 expression [10]: upregulation of ATF6
